{"source": "paper PMC10757563", "about": "(Nature chemical biology, 2023)", "tested_on": "ribosome", "test": "Toeprinting analysis of ribosome arrest during in vitro translation", "format": "biochemical", "conditions": "model yrbA-fs15 ORF with UAG stop codon; 50 μM", "data": [{"smiles": "C=C[C@]1(C)C[C@@H](OC(=O)CS[C@@H]2C[C@H]3CC[C@@H](C2)N3C)[C@]2(C)[C@H](C)CC[C@]3(CCC(=O)[C@H]32)[C@@H](C)[C@@H]1O", "note": "[retapamulin]", "values": [{"measurement": "ribosome arrest site (toeprint)", "value": "ribosomes arrested at the start codon"}]}]}
